Measurements reported in publication PMC6522524 (Nature Communications, 2019).
Several values for one entry are separate records, joined by “and”; a condition that tells them apart may be missing. Equal entries are not always repeated. Where two headings read alike, the source gives them in different places.

Assays:
HepG2.2.15 cells = conditions: HepG2.2.15; With DFO; Concentration 0 μM
HepG2 cells = experiment: in vitro; assay type: cell-based, human; conditions: HepG2+HBV 1.2X; With DFO; Concentration 0 μM
Experimental: (§1) Supplementary Fig. 11. Effect of FBS serum iron level on Huh-7, HepG2, and HepG2.2.15 cell
(§2) a Cells were maintained in medium supplemented with 2% FBS or 10% FBS for 1 day and treated with
(§3) After 6 days, cytotoxicity was measured. b Cells were treated with
(§4) the ± SD. *p < 0.05 by unpaired two-tailed Student’s t-test.

Huh-7 cells = experiment: in vitro; assay type: cell-based, human; conditions: Huh7+HBV 1.2X; With DFO; Concentration 0 μM
Experimental: as §1, §2, §3, §4

[1] = test system: HBV cccDNA in HepG2-NTCP cells; experiment: In vitro HBV infection model, HepG2-NTCP cells: intracellular cccDNA; conditions: HepG2-NTCP
Experimental: (§5) HepG2 and Huh-7 cells permanently expressing NTCP were generated by infecting them with an NTCP-encoding recombinant retrovirus and isolating GFP-expressing cells.
(§6) The isolated intracellular HBV DNA was subjected to PCR with an HBV DNA primer and probe set (Supplementary Table 1). cccDNA was isolated by the Hirt extraction method[54]. Briefly, the cells were lysed in SDS lysis buffer (50 mM Tris-HCl, pH 8.0, 10 mM EDTA, 150 mM NaCl, 1% SDS), and the lysates were mixed with KCl to a final concentration of 0.5 M. After incubation at 4 °C for 30 min, each lysate was centrifuged and the supernatant was extracted three times with phenol and once with chloroform. The DNA was then recovered by ethanol precipitation, and treated with T5 nuclease (10 U per μg for 0.5 h, M0363, New England Biolabs), and the enzyme was subsequently heat-denatured at 70 °C. The isolated cccDNA was subjected to PCR with a cccDNA primer and probe set (Supplementary Table 1).
(§7) HepG2-NTCP and Huh-7-NTCP cells were cultured in 12-well plates with the indicated compound(s) for 4 h, after which the cells were infected with HBV particles (10^7 viral genome equivalent per mL, genotype D) and treated with the indicated compound(s) for another 16 h. […]
(§8) Quantitative PCR with an HBV DNA primer and probe set was used to measure intracellular
(§9) cccDNA. The data are expressed as means ± SDs. […]

[2] = test system: HBV (genotype D) in PXB mice; conditions: for ALT(ng/mL), Sample1-3 / HBeAg(Signal to control ratio), Sample1-3 / HBsAg(ng/mL), Sample1-3 / Human albumin(g/dL), Sample1-3: individual samples
[3] = test system: HBV cccDNA in Huh-7-NTCP cells; experiment: In vitro HBV infection model, Huh-7-NTCP cells: intracellular cccDNA; conditions: Huh-7-NTCP
Experimental: as §5, §6, §7, §8, §9

[4] = test system: HBV replicative plasmid pAAV-HBV1.2× in C57BL/6 mice; experiment: Hydrodynamic injection mouse model (pAAV-HBV1.2×, C57BL/6 mice); assay type: in vivo; conditions: for HBsAg, Sample1-5: single samples
crystal structure = target: the molecule itself; experiment: crystal structure
[5] = 5 mg per kg oral daily, by day 5

What does the source list for `CC(=O)N(O)CCCCCNC(=O)CCC(=O)N(O)CCCCCNC(=O)CCC(=O)N(O)CCCCCN` [DFO]?
Cell viability(%), AVERAGE, DFO alone (HepG2.2.15 cells): 97.6681%; Cell viability(%), AVERAGE, DFO alone (HepG2 cells): 98.1893%; Cell viability(%), AVERAGE, DFO alone (Huh-7 cells): 97.5263%

Which “cccDNA levels” value [1] does the source give for `C[C@H](Cn1cnc2c(N)ncnc21)OCP(=O)(O)O` [TDF, tenofovir] here?
The value was “reduced cccDNA levels”.

What about the “intrahepatic cccDNA” value ([2]; 5 mg per kg oral daily, by week 5) of the same molecule?
The value was “significantly reduced the amount of intrahepatic cccDNA”.

What about the HBeAg levels ([2]; 5 mg per kg oral daily, by week 5, compared to control) of the same molecule?
Its HBeAg levels is “significantly decreased HBeAg levels”.

What about the “cccDNA, individual samples” value ([2]; Figure 7g, Sample1-3) of the same molecule?
The value was 0.17 log copies/cell and 0.21 log copies/cell and 0.12 log copies/cell.

What about the “cccDNA, AVERAGE” value ([2]; Figure 7g, average of 3 samples) of the same molecule?
Its value is 0.166 log copies/cell.

And the “Serum HBV DNA, AVERAGE” value ([2]; mouse, in vivo)?
Its value is 4.377 log copies/mL.

And the “Serum HBV DNA, individual samples” value ([2]; mouse, in vivo)?
Its value is 4.385 log copies/mL and 3.759 log copies/mL and 4.998 log copies/mL.

What about the “Serum ALT levels” value ([2]; mouse, in vivo, po) of the same molecule?
Its value is “decreased”.

And the “ALT(ng/mL), AVERAGE” value ([2]; week 0)?
The value was 115.048 ng/mL.

And the “HBeAg(Signal to control ratio), AVERAGE” value ([2]; week 0)?
Its value is 3.779 Signal to control ratio.

And the “HBsAg(ng/mL), AVERAGE” value ([2]; week 0)?
Its value is 399.9 ng/mL.

What about the “Human albumin(g/dL), AVERAGE” value ([2]; week 0) of the same molecule?
Its value is 4.601 g/dL.

And the “ALT(ng/mL), Sample1-3” value ([2]; week 0)?
The value was 115.042 ng/mL and 132.129 ng/mL and 97.9737 ng/mL.

What about the “HBeAg(Signal to control ratio), Sample1-3” value ([2]; week 0) of the same molecule?
Its value is 3.7788 Signal to control ratio and 3.545 Signal to control ratio and 4.013 Signal to control ratio.

What about the “HBsAg(ng/mL), Sample1-3” value ([2]; week 0) of the same molecule?
The value was 400.008 ng/mL and 382.767 ng/mL and 416.907 ng/mL.

And the “Human albumin(g/dL), Sample1-3” value ([2]; week 0)?
Its value is 4.6008 g/dL and 4.367 g/dL and 4.835 g/dL.

And the “ALT(ng/mL), AVERAGE” value ([2]; week 1)?
The value was 115.048 ng/mL.

What about the “HBeAg(Signal to control ratio), AVERAGE” value ([2]; week 1) of the same molecule?
The value was 3.705 Signal to control ratio.

What about the “HBsAg(ng/mL), AVERAGE” value ([2]; week 1) of the same molecule?
The value was 397.7 ng/mL.

And the “Human albumin(g/dL), AVERAGE” value ([2]; week 1)?
The value was 4.701 g/dL.

What about the “ALT(ng/mL), Sample1-3” value ([2]; week 1) of the same molecule?
Its value is 115.042 ng/mL and 132.61 ng/mL and 97.4937 ng/mL.

What about the “HBeAg(Signal to control ratio), Sample1-3” value ([2]; week 1) of the same molecule?
Its value is 3.705 Signal to control ratio and 3.582 Signal to control ratio and 3.828 Signal to control ratio.

What about the “HBsAg(ng/mL), Sample1-3” value ([2]; week 1) of the same molecule?
The value was 397.708 ng/mL and 379.982 ng/mL and 415.082 ng/mL.

What about the “Human albumin(g/dL), Sample1-3” value ([2]; week 1) of the same molecule?
The value was 4.7008 g/dL and 4.578 g/dL and 4.824 g/dL.

What about the “ALT(ng/mL), AVERAGE” value ([2]; week 2) of the same molecule?
Its value is 67.3429 ng/mL.

What about the “HBeAg(Signal to control ratio), AVERAGE” value ([2]; week 2) of the same molecule?
The value was 3.6862 Signal to control ratio.

What about the “HBsAg(ng/mL), AVERAGE” value ([2]; week 2) of the same molecule?
The value was 390.5 ng/mL.

And the “Human albumin(g/dL), AVERAGE” value ([2]; week 2)?
Its value is 4.6007 g/dL.

And the “ALT(ng/mL), Sample1-3” value ([2]; week 2)?
Its value is 67.3361 ng/mL and 86.0047 ng/mL and 48.688 ng/mL.

And the “HBeAg(Signal to control ratio), Sample1-3” value ([2]; week 2)?
The value was 3.6863 Signal to control ratio and 3.541 Signal to control ratio and 3.831 Signal to control ratio.

What about the “HBsAg(ng/mL), Sample1-3” value ([2]; week 2) of the same molecule?
Its value is 390.508 ng/mL and 371.671 ng/mL and 408.971 ng/mL.

What about the “Human albumin(g/dL), Sample1-3” value ([2]; week 2) of the same molecule?
Its value is 4.6008 g/dL and 4.456 g/dL and 4.746 g/dL.

What about the “ALT(ng/mL), AVERAGE” value ([2]; week 3) of the same molecule?
Its value is 35.9023 ng/mL.

What about the “HBeAg(Signal to control ratio), AVERAGE” value ([2]; week 3) of the same molecule?
Its value is 3.392 Signal to control ratio.

And the “HBsAg(ng/mL), AVERAGE” value ([2]; week 3)?
The value was 386.5 ng/mL.

What about the “Human albumin(g/dL), AVERAGE” value ([2]; week 3) of the same molecule?
The value was 4.4 g/dL.

And the “HBeAg(Signal to control ratio), Sample1-3” value ([2]; week 3)?
Its value is 3.3922 Signal to control ratio and 2.738 Signal to control ratio and 4.046 Signal to control ratio.

What about the “HBsAg(ng/mL), Sample1-3” value ([2]; week 3) of the same molecule?
The value was 386.508 ng/mL and 366.308 ng/mL and 406.308 ng/mL.

What about the “Human albumin(g/dL), Sample1-3” value ([2]; week 3) of the same molecule?
Its value is 4.4008 g/dL and 3.746 g/dL and 5.054 g/dL.

And the “ALT(ng/mL), AVERAGE” value ([2]; week 4)?
Its value is 31.5198 ng/mL.

What about the “HBeAg(Signal to control ratio), AVERAGE” value ([2]; week 4) of the same molecule?
The value was 3.246 Signal to control ratio.

What about the “HBsAg(ng/mL), AVERAGE” value ([2]; week 4) of the same molecule?
The value was 375.5 ng/mL.

And the “Human albumin(g/dL), AVERAGE” value ([2]; week 4)?
The value was 4.601 g/dL.

What about the “HBeAg(Signal to control ratio), Sample1-3” value ([2]; week 4) of the same molecule?
Its value is 3.2465 Signal to control ratio and 2.922 Signal to control ratio and 3.57 Signal to control ratio.

And the “HBsAg(ng/mL), Sample1-3” value ([2]; week 4)?
The value was 375.508 ng/mL and 355.54 ng/mL and 395.08 ng/mL.

What about the “Human albumin(g/dL), Sample1-3” value ([2]; week 4) of the same molecule?
Its value is 4.6008 g/dL and 4.276 g/dL and 4.924 g/dL.

What about the “ALT(ng/mL), AVERAGE” value ([2]; week 5) of the same molecule?
The value was 19.0197 ng/mL.

And the “HBeAg(Signal to control ratio), AVERAGE” value ([2]; week 5)?
The value was 3.146 Signal to control ratio.

And the “HBsAg(ng/mL), AVERAGE” value ([2]; week 5)?
Its value is 370.7 ng/mL.

And the “Human albumin(g/dL), AVERAGE” value ([2]; week 5)?
Its value is 4.801 g/dL.

And the “HBeAg(Signal to control ratio), Sample1-3” value ([2]; week 5)?
Its value is 3.1465 Signal to control ratio and 2.933 Signal to control ratio and 3.359 Signal to control ratio.

And the “HBsAg(ng/mL), Sample1-3” value ([2]; week 5)?
Its value is 370.708 ng/mL and 351.467 ng/mL and 389.567 ng/mL.

What about the “Human albumin(g/dL), Sample1-3” value ([2]; week 5) of the same molecule?
Its value is 4.8008 g/dL and 4.588 g/dL and 5.014 g/dL.

And the “cccDNA levels” value [3]?
The value was “reduced cccDNA levels”.

What about the “HBV core protein levels in the liver” value [4, 5] of the same molecule?
Its value is “reduced HBV core protein levels in the liver”.

And the “serum HBV DNA levels” value [4, 5]?
The value was “significantly lowered serum HBV DNA levels”.

And the “HBsAg, AVERAGE” value ([4]; day 2)?
Its value is 271.658 ng/mL.

What about the “HBsAg, AVERAGE” value ([4]; day 3) of the same molecule?
The value was 286.73 ng/mL.

And the “HBsAg, AVERAGE” value ([4]; day 4)?
Its value is 300.864 ng/mL.

What about the “HBsAg, AVERAGE” value ([4]; day 5) of the same molecule?
Its value is 301.678 ng/mL.

And the “HBsAg, Sample1-5” value ([4]; day 2)?
The value was 271.684 ng/mL and 284.96 ng/mL and 258.424 ng/mL and 258.29 ng/mL and 284.933 ng/mL.

And the “HBsAg, Sample1-5” value ([4]; day 3)?
Its value is 286.759 ng/mL and 301.375 ng/mL and 272.159 ng/mL and 272.011 ng/mL and 301.346 ng/mL.

What about the “HBsAg, Sample1-5” value ([4]; day 4) of the same molecule?
Its value is 300.869 ng/mL and 303.445 ng/mL and 298.296 ng/mL and 298.27 ng/mL and 303.44 ng/mL.

And the “HBsAg, Sample1-5” value ([4]; day 5)?
The value was 301.701 ng/mL and 312.285 ng/mL and 291.119 ng/mL and 291.012 ng/mL and 312.273 ng/mL.

B1: Cp149-Y132A (Y132A mutant of Cp149) (domain or fragment)
chain: MDIDPYKEFGATVELLSFLPSDFFPSVRDLLDTAAALYRDALESPEHCSPHHTALRQAILCWGDLMTLATWVGTNLEDPASRDLVVSYVNTNVGLKFRQLLWFHISCLTFGRETVLEYLVSFGVWIRTPPAARPPNAPILSTLPETTVV
notes: source: E. coli BL21 (DE3), purified (Ni-NTA, thrombin, HiTrap Q anion exchange)
Which “stoichiometry N” value (crystal structure) does the source give for B1 here?
The value was 6.
